{"source": "ChEMBL document CHEMBL4118098", "about": "“Discovery of DS28120313 as a potent orally active hepcidin production inhibitor: Design and optimization of novel 4,6-disubstituted indazole derivatives” (Bioorg Med Chem Lett, 2017)", "key": {"[1]": {"tested_on": "Fibroblast growth factor receptor 1 (Homo sapiens), P11362 [V561M]", "test": "Inhibition of FGFR1 V561M mutant (unknown origin) at 0.19 uM relative to control"}, "[2]": {"target": "Tyrosine-protein kinase JAK2 (Homo sapiens) (UniProt O60674)", "test": "Inhibition of JAK2 (unknown origin) at 0.19 uM relative to control"}, "[3]": {"target": "Proto-oncogene tyrosine-protein kinase ROS (Homo sapiens) (UniProt P08922)", "test": "Inhibition of ROS (unknown origin) at 0.19 uM relative to control"}, "[4]": {"target": "Aurora kinase A (Homo sapiens) (UniProt O14965)", "test": "Inhibition of AurA (unknown origin) at 0.19 uM relative to control"}, "HepG2": {"tested_on": "HepG2", "test": "Inhibition of human recombinant BMP6-stimulated hepcidin mRNA expression in human HepG2 cells after 6 hrs by qRT-PCR analysis", "assay_type": "functional, cell-based", "details": "HepG2, 6 h"}, "[5]": {"target": "T1, Protein kinase C iota type (Homo sapiens) (UniProt P41743)", "T1 sequence (whole entry)": "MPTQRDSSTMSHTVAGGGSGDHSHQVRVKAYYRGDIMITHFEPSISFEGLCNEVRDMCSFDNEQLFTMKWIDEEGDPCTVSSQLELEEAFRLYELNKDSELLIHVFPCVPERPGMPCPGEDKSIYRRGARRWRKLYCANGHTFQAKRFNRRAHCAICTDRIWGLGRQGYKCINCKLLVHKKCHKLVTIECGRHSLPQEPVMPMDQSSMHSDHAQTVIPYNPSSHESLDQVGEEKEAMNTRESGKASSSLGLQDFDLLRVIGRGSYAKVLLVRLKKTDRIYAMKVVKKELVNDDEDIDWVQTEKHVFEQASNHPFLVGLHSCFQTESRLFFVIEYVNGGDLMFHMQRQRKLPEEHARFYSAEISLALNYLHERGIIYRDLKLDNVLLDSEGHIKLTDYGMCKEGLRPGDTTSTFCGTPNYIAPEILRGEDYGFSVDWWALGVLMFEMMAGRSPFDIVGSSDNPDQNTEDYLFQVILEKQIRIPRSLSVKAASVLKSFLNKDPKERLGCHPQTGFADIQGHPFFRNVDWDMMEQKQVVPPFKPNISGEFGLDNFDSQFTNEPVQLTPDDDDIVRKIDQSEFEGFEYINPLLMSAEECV", "test": "Inhibition of PKC-iota (unknown origin) at 0.19 uM relative to control"}, "[6]": {"target": "Interleukin-1 receptor-associated kinase 1 (Homo sapiens) (UniProt P51617)", "test": "Inhibition of IRAK1 (unknown origin) at 0.19 uM relative to control"}, "[7]": {"target": "Ribosomal protein S6 kinase alpha-2 (Homo sapiens) (UniProt Q15349)", "test": "Inhibition of RSK3 (unknown origin) at 0.19 uM relative to control"}, "[8]": {"target": "Homeodomain-interacting protein kinase 2 (Homo sapiens) (UniProt Q9H2X6)", "test": "Inhibition of HIPK2 (unknown origin) at 0.19 uM relative to control"}, "[9]": {"target": "Homeodomain-interacting protein kinase 1 (Homo sapiens) (UniProt Q86Z02)", "test": "Inhibition of HIPK1 (unknown origin) at 0.19 uM relative to control"}, "[10]": {"target": "Leukocyte tyrosine kinase receptor (Homo sapiens) (UniProt P29376)", "test": "Inhibition of LTK (unknown origin) at 0.19 uM relative to control"}, "[11]": {"target": "Serine/threonine-protein kinase 4 (Homo sapiens) (UniProt Q13043)", "test": "Inhibition of MST1 (unknown origin) at 0.19 uM relative to control"}, "[12]": {"target": "Calcium/calmodulin-dependent protein kinase type 1D (Homo sapiens) (UniProt Q8IU85)", "test": "Inhibition of CamK1d (unknown origin) at 0.19 uM relative to control"}, "[13]": {"tested_on": "Mitogen-activated protein kinase 14 (Homo sapiens), Q16539 [T106M]", "test": "Inhibition of SAPK2a T106M mutant (unknown origin) at 0.19 uM relative to control"}, "[14]": {"target": "Protein kinase C epsilon type (Homo sapiens) (UniProt Q02156)", "test": "Inhibition of PKC-epsilon (unknown origin) at 0.19 uM relative to control"}, "[15]": {"target": "Ephrin type-A receptor 3 (Homo sapiens) (UniProt P29320)", "test": "Inhibition of EPHA3 (unknown origin) at 0.164 uM relative to control"}, "[16]": {"target": "Rho-associated protein kinase 2 (Homo sapiens) (UniProt O75116)", "test": "Inhibition of ROCK2 (unknown origin) at 0.164 uM relative to control"}, "[17]": {"target": "MAP kinase-interacting serine/threonine-protein kinase 2 (Homo sapiens) (UniProt Q9HBH9)", "test": "Inhibition of MNK2 (unknown origin) at 0.164 uM relative to control"}, "[18]": {"target": "Serine/threonine-protein kinase Nek9 (Homo sapiens) (UniProt Q8TD19)", "test": "Inhibition of NEK9 (unknown origin) at 0.164 uM relative to control"}, "[19]": {"target": "Interleukin-1 receptor-associated kinase 1 (Homo sapiens) (UniProt P51617)", "test": "Inhibition of IRAK1 (unknown origin) at 0.164 uM relative to control"}, "[20]": {"tested_on": "Fibroblast growth factor receptor 1 (Homo sapiens), P11362 [V561M]", "test": "Inhibition of FGFR1 V561M mutant (unknown origin) at 0.164 uM relative to control"}, "[21]": {"target": "AMPK alpha2/beta1/gamma1 (Homo sapiens) (UniProt P54646+P54619+Q9Y478)", "test": "Inhibition of AMPK-alpha2/beta1/gamma1 (unknown origin) at 0.164 uM relative to control", "assay_type": "protein-complex assay"}, "[22]": {"target": "Cyclin-dependent kinase 9 (Homo sapiens) (UniProt P50750)", "test": "Inhibition of CDK9 (unknown origin) at 0.164 uM relative to control"}, "[23]": {"target": "Mitogen-activated protein kinase kinase kinase kinase 4 (Homo sapiens) (UniProt O95819)", "test": "Inhibition of HGK (unknown origin) at 0.164 uM relative to control"}, "[24]": {"target": "Tyrosine-protein kinase SYK (Homo sapiens) (UniProt P43405)", "test": "Inhibition of SYK (unknown origin) at 0.164 uM relative to control"}, "[25]": {"target": "Serine/threonine-protein kinase Chk2 (Homo sapiens) (UniProt O96017)", "test": "Inhibition of CHK2 (unknown origin) at 0.164 uM relative to control"}, "[26]": {"target": "Receptor tyrosine-protein kinase erbB-4 (Homo sapiens) (UniProt Q15303)", "test": "Inhibition of HER4 (unknown origin) at 0.164 uM relative to control"}, "[27]": {"target": "CDK4/Cyclin D3 (Homo sapiens) (UniProt P11802+P30281)", "test": "Inhibition of CDK4/CyclinD3 (unknown origin) at 0.164 uM relative to control", "assay_type": "protein-complex assay"}, "[28]": {"target": "Protein kinase C beta type (Homo sapiens) (UniProt P05771)", "test": "Inhibition of PKC-beta2 (unknown origin) at 0.164 uM relative to control"}, "[29]": {"target": "Serine/threonine-protein kinase PAK 4 (Homo sapiens) (UniProt O96013)", "test": "Inhibition of PAK4 (unknown origin) at 0.164 uM relative to control"}, "[30]": {"target": "Tyrosine-protein kinase Yes (Homo sapiens) (UniProt P07947)", "test": "Inhibition of Yes (unknown origin) at 0.164 uM relative to control"}, "[31]": {"target": "Vascular endothelial growth factor receptor 2 (Homo sapiens) (UniProt P35968)", "test": "Inhibition of KDR (unknown origin) at 0.164 uM relative to control"}}, "note": "pIC50: −log10 of the molar value.", "data": [{"smiles": "Cc1[nH]nc(C2CC2)c1-c1ccc2c(-c3ccc(N4CCN(C)CC4)nc3)n[nH]c2c1", "values": [{"measurement": "inhibition", "setting": "[1]", "result": 6, "unit": "%"}, {"measurement": "inhibition", "setting": "[2]", "result": 6.3, "unit": "%"}, {"measurement": "inhibition", "setting": "[3]", "result": -1.7, "unit": "%"}, {"measurement": "inhibition", "setting": "[4]", "result": 3.3, "unit": "%"}, {"measurement": "pIC50", "setting": "HepG2", "result": 6.92}, {"measurement": "inhibition", "setting": "[5]", "result": -7, "unit": "%"}, {"measurement": "inhibition", "setting": "[6]", "result": -2.7, "unit": "%"}, {"measurement": "inhibition", "setting": "[7]", "result": -2.3, "unit": "%"}, {"measurement": "inhibition", "setting": "[8]", "result": 2.7, "unit": "%"}, {"measurement": "inhibition", "setting": "[9]", "result": 0.7, "unit": "%"}, {"measurement": "inhibition", "setting": "[10]", "result": 0.3, "unit": "%"}, {"measurement": "inhibition", "setting": "[11]", "result": 28, "unit": "%"}, {"measurement": "inhibition", "setting": "[12]", "result": -1.7, "unit": "%"}, {"measurement": "inhibition", "setting": "[13]", "result": 0.3, "unit": "%"}, {"measurement": "inhibition", "setting": "[14]", "result": 3, "unit": "%"}]}, {"smiles": "COC(=O)Nc1cc(-c2c(C3CC3)n[nH]c2C)cc2[nH]ncc12", "values": [{"measurement": "inhibition", "setting": "[15]", "result": -6.7, "unit": "%"}, {"measurement": "inhibition", "setting": "[16]", "result": -3, "unit": "%"}, {"measurement": "inhibition", "setting": "[17]", "result": -0.7, "unit": "%"}, {"measurement": "inhibition", "setting": "[18]", "result": 0.3, "unit": "%"}, {"measurement": "inhibition", "setting": "[19]", "result": 3, "unit": "%"}, {"measurement": "inhibition", "setting": "[20]", "result": 4.7, "unit": "%"}, {"measurement": "inhibition", "setting": "[21]", "result": 0.3, "unit": "%"}, {"measurement": "pIC50", "setting": "HepG2", "result": "5.00 to 7.03"}, {"measurement": "inhibition", "setting": "[22]", "result": 0, "unit": "%"}, {"measurement": "inhibition", "setting": "[23]", "result": 5, "unit": "%"}, {"measurement": "inhibition", "setting": "[24]", "result": 8, "unit": "%"}, {"measurement": "inhibition", "setting": "[25]", "result": 9.7, "unit": "%"}, {"measurement": "inhibition", "setting": "[26]", "result": -7.7, "unit": "%"}, {"measurement": "inhibition", "setting": "[27]", "result": -0.7, "unit": "%"}, {"measurement": "inhibition", "setting": "[28]", "result": 5.7, "unit": "%"}, {"measurement": "inhibition", "setting": "[29]", "result": 5.7, "unit": "%"}, {"measurement": "inhibition", "setting": "[30]", "result": 3, "unit": "%"}, {"measurement": "inhibition", "setting": "[31]", "result": 11.7, "unit": "%"}]}]}
